Results taken from US20130184222A1, “[…] ACTIVE COMPOSITIONS AND THEIR METHODS OF USE” (AGIOS PHARMACEUTICALS, INC, priority 2010, published 2013).

Experiments:
U87MG cells = experiment: Cellular assay: inhibition of 2-HG production in U87MG cells (LC-MS, 48 hours); assay type: cell-based; conditions: Homo sapiens, U-87 MG, 2-HG in media by LC-MS
Protocol: (§1) Cells (HT1080 or U87MG) were grown in T125 flasks in DMEM containing 10% FBS, 1× penicillin/streptomycin and 500 ug/mL G418 (present in U87MG cells only). They were harvested by trypsin and seeded into 96 well white bottom plates at a density of 5000 cell/well in 100 ul/well in DMEM with 10% FBS. No cells were placed in columns 1 and 12. Cells were incubated overnight at 37° C. in 5% CO2. The next day test compounds were made up at 2× the final concentration and 100 ul were added to each cell well. The final concentration of DMSO was 0.2% and the DMSO control wells were plated in row G. The plates were then placed in the incubator for 48 hours. At 48 hours, 100 ul of media was removed from each well and analyzed by LC-MS for 2-HG concentrations. The cell plate was placed back in the incubator for another 24 hours. At 72 hours post compound addition, 10 mL/plate of Promega Cell Titer Glo reagent was thawed and mixed. The cell plate was removed from the incubator and allowed to equilibrate to room temperature. Then 100 ul of Promega Cell Titer Glo reagent was added to each well of media. The cell plate was then placed on an orbital shaker for 10 minutes and then allowed to sit at room temperature for 20 minutes. The plate was then read for luminescence with an integration time of 500 ms.

IDH1 R132H = IDH1 R132H (Homo sapiens, UniProt O75874, R132H); experiment: In vitro assay for IDH1 R132H inhibitors (NADPH/aKG, resazurin detection); assay type: biochemical; conditions: Table 4B; 0.2 μg/ml IDH1 R132H, 50 minutes at room temperature; read-out: IC50, IDH1 R132H Inhibition
Method in brief: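 Buffer: 150 mM NaCl, 10 mM MgCl2, 20 mM Tris pH 7.5, 0.03% BSA. Compound was added to substrate mix (8 uM NADPH, 2 mM aKG), then enzyme mix (0.2 μg/ml IDH1 R132H), and incubated 50 min at room temperature. Remaining NADPH was read by resazurin (30 μM in detection mix) to resorufin fluorescence after 5 min, Ex544/Em590.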

HT1080 cells = experiment: Cellular assay: inhibition of 2-HG production in HT1080 cells (LC-MS, 48 hours); assay type: cell-based; conditions: Homo sapiens, HT-1080, 2-HG in media by LC-MS
Protocol: as §1

Sequence of IDH1 R132H (O75874 whole entry R132H): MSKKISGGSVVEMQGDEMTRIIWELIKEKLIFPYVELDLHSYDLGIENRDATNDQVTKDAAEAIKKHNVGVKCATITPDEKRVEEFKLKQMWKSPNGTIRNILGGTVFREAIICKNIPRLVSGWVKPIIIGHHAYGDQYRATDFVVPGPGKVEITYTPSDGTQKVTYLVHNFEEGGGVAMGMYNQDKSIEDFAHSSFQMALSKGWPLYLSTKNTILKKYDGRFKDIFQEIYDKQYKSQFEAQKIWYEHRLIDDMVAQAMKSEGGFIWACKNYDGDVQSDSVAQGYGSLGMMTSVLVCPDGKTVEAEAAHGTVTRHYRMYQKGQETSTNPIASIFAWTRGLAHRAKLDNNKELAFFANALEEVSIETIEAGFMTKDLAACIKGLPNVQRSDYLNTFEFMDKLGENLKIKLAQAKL

SMILES | IC50 (U87MG cells) | IC50 (IDH1 R132H) | IC50 (HT1080 cells)
Cc1ccccc1C(C(=O)NC1CCCCC1)N(C(=O)CN1CCN(C(=O)OC(C)C)CC1)c1cccc(F)c1 (stereo not drawn) [Compound 250] | 1000 to 5000 nM | 100 to 1000 nM | 1000 to 5000 nM
Cc1ccccc1C(C(=O)NC1CCCCC1)N(C(=O)Cn1ccnc1C)c1cccc(F)c1 (stereo not drawn) [Compound 165] | ≤ 250 nM | ≤ 100 nM | 250 to 1000 nM
Cc1ccccc1C(C(=O)NC1CCCCC1)N(Cc1cccs1)C(=O)Cn1ccnc1 (stereo not drawn) [Compound 204, N-cyclohexyl-2-[(2-imidazol-1-yl-acetyl)-thiophen-2-ylmethyl-amino]-2-o-tolyl-acetamide] | 250 to 1000 nM | 100 to 1000 nM | 1000 to 5000 nM
Cc1ccccc1C(C(=O)NC1CCCCC1)N(C(=O)CNCc1cscn1)c1cccc(F)c1 (stereo not drawn) [Compound 267] | 1000 to 5000 nM | 100 to 1000 nM | 250 to 1000 nM
COc1ccccc1NCC(=O)N(c1cccc(F)c1)C(C(=O)NC1CCCCC1)c1ccccc1C (stereo not drawn) [Compound 218] | 250 to 1000 nM | ≤ 100 nM | 250 to 1000 nM
Cc1ccccc1C(C(=O)NC1CCCCC1)N(C(=O)CNc1ccc(F)cn1)c1cccc(F)c1 (stereo not drawn) [Compound 253] | 250 to 1000 nM | ≤ 100 nM | ≤ 250 nM
Cc1ccn(CC(=O)N(c2cccc(F)c2)C(C(=O)NC2CCCCC2)c2ccccc2C)n1 (stereo not drawn) [Compound 298] | 1000 to 5000 nM | 100 to 1000 nM | 250 to 1000 nM
Cc1ccccc1C(C(=O)NC1CCCCC1)N(C(=O)c1ccc(O)cc1)c1cccc(F)c1 (stereo not drawn) [Compound 216] | 250 to 1000 nM | 100 to 1000 nM | 1000 to 5000 nM
Cc1ccccc1C(C(=O)NC1CCCCC1)N(C(=O)C(=O)c1c[nH]c2ccccc12)c1cccc(F)c1 (stereo not drawn) [Compound 262] | 1000 to 5000 nM | 100 to 1000 nM | 1000 to 5000 nM
COc1ccc(CNCC(=O)N(c2cccc(F)c2)C(C(=O)NC2CCCCC2)c2ccccc2C)cc1 (stereo not drawn) [Compound 219] | 1000 to 5000 nM | 100 to 1000 nM | 1000 to 5000 nM
Cc1ccccc1C(C(=O)NC1CCCCC1)N(C(=O)COC1CCCC1)c1cccc(F)c1 (stereo not drawn) [Compound 230] | 1000 to 5000 nM | 100 to 1000 nM | 1000 to 5000 nM
Cc1ccccc1C(C(=O)NC1CCCCC1)N(C(=O)Cn1ccc(F)cc1=N)c1cccc(F)c1 (stereo not drawn) [Compound 240] | 1000 to 5000 nM | ≤ 100 nM | 250 to 1000 nM
Cc1ccccc1C(C(=O)NC1CCCCC1)N(C(=O)CNCCc1ccncc1)c1cccc(F)c1 (stereo not drawn) [Compound 184] | 250 to 1000 nM | 100 to 1000 nM | 250 to 1000 nM
COC(=O)N1CCN(CC(=O)N(c2cccc(F)c2)C(C(=O)NC2CCCCC2)c2ccccc2C)CC1 (stereo not drawn) [Compound 185] | 250 to 1000 nM | ≤ 100 nM | ≤ 250 nM
COc1cccc(-c2cccc(N(C(=O)Cn3ccnc3C)C(C(=O)NC3CCCCC3)c3ccccc3C)c2)c1 (stereo not drawn) [Compound 299] | 250 to 1000 nM | 100 to 1000 nM | 1000 to 5000 nM
Cc1ccccc1C(C(=O)NC1CCCCC1)N(C(=O)Cc1c[nH]c2cccnc12)c1cccc(F)c1 (stereo not drawn) [Compound 275] | 250 to 1000 nM | ≤ 100 nM | ≤ 250 nM
Cc1ccccc1C(C(=O)NC1CCCCC1)N(C(=O)CNc1ccc(C(F)(F)F)nc1)c1cccc(F)c1 (stereo not drawn) [Compound 279] | > 5000 nM | 100 to 1000 nM | 1000 to 5000 nM
Cc1ccccc1C(C(=O)NC1CCCOC1)N(C(=O)Cc1cccs1)c1cccc(F)c1 (stereo not drawn) [Compound 200] | 1000 to 5000 nM | 100 to 1000 nM | 1000 to 5000 nM
Cc1ccccc1C(C(=O)NC1CCCCC1)N(C(=O)COc1cccnc1)c1cccc(F)c1 (stereo not drawn) [Compound 197] | 250 to 1000 nM | ≤ 100 nM | 250 to 1000 nM
Cc1ccccc1C(C(=O)NC1CCCCC1)N(C(=O)Cc1c[nH]c2ncccc12)c1cccc(F)c1 (stereo not drawn) [Compound 203] | ≤ 250 nM | ≤ 100 nM | ≤ 250 nM
Cc1ccccc1C(C(=O)NC1CCOCC1)N(C(=O)CN1CCc2ccccc21)c1cccc(F)c1 (stereo not drawn) [Compound 195] | 1000 to 5000 nM | 100 to 1000 nM | 250 to 1000 nM
COC(=O)Nc1cccc(N(C(=O)Cn2ccnc2C)C(C(=O)NC2CCCCC2)c2ccccc2C)c1 (stereo not drawn) [Compound 241] | 250 to 1000 nM | 100 to 1000 nM | 1000 to 5000 nM
Cc1ccccc1C(C(=O)NC1CCCCC1)N(C(=O)Cn1ccnc1C)c1cccc(N)c1 (stereo not drawn) [Compound 226] | ≤ 250 nM | 100 to 1000 nM | 1000 to 5000 nM
Cc1ccccc1C(C(=O)NC1CCCCC1)N(Cc1cccs1)C(=O)CNc1ccc(C#N)cc1 (stereo not drawn) [Compound 228] | 250 to 1000 nM | ≤ 100 nM | 250 to 1000 nM

Results, then the molecule that gave them:

IC50 (U87MG cells) | IC50 (IDH1 R132H) | IC50 (HT1080 cells) | SMILES
250 to 1000 nM | 100 to 1000 nM | 1000 to 5000 nM | Cc1ccccc1[C@@H](C(=O)NC1CCCCC1)N(C(=O)[C@H]1CCCN1C(=O)OC(C)(C)C)c1cccc(F)c1 [Compound 340]
1000 to 5000 nM | 100 to 1000 nM | 1000 to 5000 nM | Cc1cnccc1NC(=O)N(Cc1cccs1)C(C(=O)NC1CCCCC1)c1ccccc1C (stereo not drawn) [Compound 389]
250 to 1000 nM | 100 to 1000 nM | 250 to 1000 nM | Cc1ccccc1C(C(=O)NC1CCC(F)(F)CC1)N(C(=O)Cn1ccnc1C(F)(F)F)c1cccc(F)c1 (stereo not drawn) [Compound 373]
1000 to 5000 nM | 100 to 1000 nM | 1000 to 5000 nM | CCC(=O)N1CCCC[C@@H]1C(=O)N(c1cccc(F)c1)[C@H](C(=O)NC1CCCCC1)c1ccccc1C [Compound 347]
250 to 1000 nM | 100 to 1000 nM | ≤ 250 nM | Cc1ccccc1C(C(=O)NC1CCCCC1)N(C(=O)CNc1cccc(F)n1)c1cccc(F)c1 (stereo not drawn) [Compound 302]
1000 to 5000 nM | 100 to 1000 nM | 250 to 1000 nM | Cc1cnn(CC(=O)N(c2cccc(F)c2)C(C(=O)NC2CCCCC2)c2ccccc2C)c1 (stereo not drawn) [Compound 309]
≤ 250 nM | ≤ 100 nM | ≤ 250 nM | Cc1ccccc1C(C(=O)NC1CCCCC1)N(C(=O)Cc1ccncc1)c1cccc(F)c1 (stereo not drawn) [Compound 311]
250 to 1000 nM | 100 to 1000 nM | 250 to 1000 nM | Cc1ccccc1C(C(=O)NC1CCCCC1)N(C(=O)Cc1ccccn1)c1cccc(F)c1 (stereo not drawn) [Compound 305]
250 to 1000 nM | 100 to 1000 nM | 250 to 1000 nM | Cc1ccccc1C(C(=O)NC1CC(F)(F)C1)N(C(=O)CNc1ncccc1F)c1cccc(F)c1 (stereo not drawn) [Compound 379]
≤ 250 nM | 100 to 1000 nM | 250 to 1000 nM | Cc1ccccc1C(C(=O)NC1CCCCC1)N(C(=O)Cn1ccnc1N)c1cccc(F)c1 (stereo not drawn) [Compound 326]
1000 to 5000 nM | 100 to 1000 nM | 250 to 1000 nM | Cc1ccccc1[C@@H](C(=O)NC1CCCCC1)N(C(=O)[C@H]1CCCCN1C(=O)OC(C)C)c1cccc(F)c1 [Compound 338]
1000 to 5000 nM | 100 to 1000 nM | 1000 to 5000 nM | Cc1ccccc1[C@@H](C(=O)NC1CCCCC1)N(C(=O)[C@@H]1CCCCN1C(=O)OC(C)C)c1cccc(F)c1 [Compound 339]
≤ 250 nM | ≤ 100 nM | ≤ 250 nM | Cc1ccccc1C(C(=O)NC1CCCCC1)N(C(=O)CNc1ncccc1F)c1cccc(F)c1 (stereo not drawn) [Compound 301]
1000 to 5000 nM | 100 to 1000 nM | 250 to 1000 nM | COC(=O)N1CCCC[C@@H]1C(=O)N(c1cccc(F)c1)[C@H](C(=O)NC1CCCCC1)c1ccccc1C [Compound 335]
1000 to 5000 nM | 100 to 1000 nM | 250 to 1000 nM | Cc1ccccc1C(C(=O)NC1CCCCC1)N(C(=O)CNc1cncc(F)c1)c1cccc(F)c1 (stereo not drawn) [Compound 310]
